In article PMC6001238, “Iterative Chemical Engineering of Vancomycin Leads to Novel Vancomycin Analogs With a High in Vitro Therapeutic Index” (Frontiers in Microbiology, 2018):
≈ marks a conversion by molar mass, not a printed value.

What was measured:
E. faecalis VSE 1 = experiment: MIC, broth microdilution, vancomycin-sensitive E. faecalis (VSE 1); assay type: cell-based, Enterococcus faecalis; settings: for MIC: Enterococcus faecalis VSE 1 (vancomycin-sensitive), read-out: MIC; for MIC-fold improvement vs. vancomycin: VSE 1, ratio of MIC of vancomycin and MIC of analogue
Method in brief: (§1)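 Controls (ultrapure water; broth not inoculated) were included throughout CLSI-compliant broth microdilution. One condition supplemented analogue or comparator with 10 μM vancomycin, final level.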

E. faecalis VRE 6 = experiment: MIC, broth microdilution, vancomycin-resistant E. faecalis VRE 6 (VanA); assay type: cell-based, Enterococcus faecalis; settings: for MIC: Enterococcus faecalis VRE 6 (vancomycin-resistant), read-out: MIC; for MIC-fold improvement vs. vancomycin: VRE 6, ratio of MIC of vancomycin and MIC of analogue
Method in brief: as §1

E. faecalis VRE 53 = experiment: MIC, broth microdilution, vancomycin-resistant E. faecalis VRE 53 (VanA); assay type: cell-based, Enterococcus faecalis; settings: for MIC: Enterococcus faecalis VRE 53 (vancomycin-resistant), read-out: MIC; for MIC-fold improvement vs. vancomycin: VRE 53, ratio of MIC of vancomycin and MIC of analogue
Method in brief: as §1

E. faecalis VRE 29 = experiment: MIC, broth microdilution, vancomycin-resistant E. faecalis VRE 29 (VanA); assay type: cell-based, Enterococcus faecalis; settings: for MIC: Enterococcus faecalis VRE 29 (vancomycin-resistant), read-out: MIC; for MIC-fold improvement vs. vancomycin: VRE 29, ratio of MIC of vancomycin and MIC of analogue
Method in brief: as §1

E. faecalis VRE 37 = experiment: MIC, broth microdilution, vancomycin-resistant E. faecalis VRE 37 (VanA); assay type: cell-based, Enterococcus faecalis; settings: for MIC: Enterococcus faecalis VRE 37 (vancomycin-resistant), read-out: MIC
Method in brief: as §1

[1] = test system: Murine leukemia (L1210) cells; experiment: Cytostatic activity, L1210 cell proliferation; assay type: cell-based; settings: mean ± SD of three experiments; highest concentration tested 250 µM; 2 days; read-out: Toxicity (IC50) L1210
Method in brief: (§2)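 Test compounds, serially diluted, received an equal volume of cell suspension at 300,000–500,000 cells/mL. After 37°C incubation (2 days for L1210, 3 for CEM, 4 for HeLa), cells were enumerated by Coulter counting and 50%-inhibitory concentrations calculated per cell type.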

[2] = test system: human T-lymphocyte (CEM) cells; experiment: Cytostatic activity, CEM cell proliferation; assay type: cell-based; settings: mean ± SD of three experiments; highest concentration tested 250 µM; 3 days; read-out: Toxicity (IC50) CEM
Method in brief: as §2

[3] = test system: human cervix carcinoma (HeLa) cells; experiment: Cytostatic activity, HeLa cell proliferation; assay type: cell-based; settings: mean ± SD of three experiments; highest concentration tested 250 µM; 4 days; read-out: Toxicity (IC50) HeLa
Method in brief: as §2

[4] = test system: L1210, CEM and HeLa cell lines; experiment: Cytostatic activity, average or summary over L1210, CEM and HeLa; assay type: cell-based; settings: average of L1210, CEM and HeLa; read-out: Toxicity (IC50) Average
Method in brief: as §2

[5] = test system: S. aureus VSSA (ATCC 6538); experiment: MIC, broth microdilution, vancomycin-sensitive S. aureus (VSSA/MSSA, ATCC 6538); assay type: cell-based, Staphylococcus aureus; settings: for MIC: Staphylococcus aureus VSSA, read-out: MIC; for MIC-fold improvement vs. vancomycin: VSSA, ratio of MIC of vancomycin and MIC of analogue
Method in brief: as §1

S. aureus VISA/HIP5827 = experiment: MIC, broth microdilution, vancomycin-intermediate S. aureus VISA HIP5827; assay type: cell-based, Staphylococcus aureus; settings: for MIC: Staphylococcus aureus VISA/HIP5827, read-out: MIC; for MIC-fold improvement vs. vancomycin: VISA/HIP5827, ratio of MIC of vancomycin and MIC of analogue
Method in brief: as §1

S. aureus VRSA = experiment: MIC, broth microdilution, vancomycin-resistant S. aureus (VRSA); assay type: cell-based, Staphylococcus aureus; settings: for MIC-fold improvement vs. vancomycin: VRSA, ratio of MIC of vancomycin and MIC of analogue; for MIC: Staphylococcus aureus VRSA, read-out: MIC
Method in brief: as §1

MRSA KS2 = experiment: MIC, broth microdilution, MRSA KS2; assay type: cell-based, Staphylococcus aureus; settings: for MIC-fold improvement vs. vancomycin: MRSA KS2, ratio of MIC of vancomycin and MIC of analogue; for MIC: Staphylococcus aureus MRSA KS2, read-out: MIC
Method in brief: as §1

MRSA KS6 = experiment: MIC, broth microdilution, MRSA KS6; assay type: cell-based, Staphylococcus aureus; settings: for MIC-fold improvement vs. vancomycin: MRSA KS6, ratio of MIC of vancomycin and MIC of analogue; for MIC: Staphylococcus aureus MRSA KS6, read-out: MIC
Method in brief: as §1

MRSA KS89 = experiment: MIC, broth microdilution, MRSA KS89; assay type: cell-based, Staphylococcus aureus; settings: for MIC-fold improvement vs. vancomycin: MRSA KS8, ratio of MIC of vancomycin and MIC of analogue; for MIC: Staphylococcus aureus MRSA KS8, read-out: MIC
Method in brief: as §1

MRSA KS1 = experiment: MIC, broth microdilution, MRSA KS1; assay type: cell-based, Staphylococcus aureus; settings: for MIC-fold improvement vs. vancomycin: MRSA KS1, ratio of MIC of vancomycin and MIC of analogue; for MIC: Staphylococcus aureus MRSA KS1, read-out: MIC
Method in brief: as §1

Row | SMILES | MIC (E. faecalis VSE 1) [µM] | MIC-fold improvement vs. vancomycin (E. faecalis VSE 1) | MIC (E. faecalis VRE 6) [µM] | MIC-fold improvement vs. vancomycin (E. faecalis VRE 6) | MIC (E. faecalis VRE 53) [µM] | MIC-fold improvement vs. vancomycin (E. faecalis VRE 53) | MIC (E. faecalis VRE 29) [µM] | MIC-fold improvement vs. vancomycin (E. faecalis VRE 29) | MIC (E. faecalis VRE 37) [µM] | IC50 [1] [µM] | IC50 [2] [µM] | IC50 [3] [µM] | IC50 [4] [µM] | MIC [5] [µM] | MIC-fold improvement vs. vancomycin [5] | MIC (S. aureus VISA/HIP5827) [µM] | MIC-fold improvement vs. vancomycin (S. aureus VISA/HIP5827) | MIC-fold improvement vs. vancomycin (S. aureus VRSA) | MIC-fold improvement vs. vancomycin (MRSA KS2) | MIC (MRSA KS2) [µM] | further results
1 | CNC(CC(C)C)C(=O)NC1C(=O)NC(CC(N)=O)C(=O)NC2C(=O)NC3C(=O)NC(C(=O)NC(C(=O)NCCCNC(=O)c4cc5ccccc5s4)c4cc(O)cc(O)c4-c4cc3ccc4O)C(O)c3ccc(c(Cl)c3)Oc3cc2cc(c3OC2OC(CO)C(O)C(O)C2OC2CC(C)(N)C(O)C(C)O2)Oc2ccc(cc2Cl)C1O (stereo not drawn) [Vanc-26] | 0.20 (≈ 0.333 µg/mL) | 8 | 3.13 (≈ 5.21 µg/mL) | 64 | 25 (≈ 41.6 µg/mL) | 16 | 6.25 (≈ 10.4 µg/mL) | 64 | 12.5 (≈ 20.8 µg/mL) | > 250 | > 250 | 42 ± 23 | 181 | 0.39 (≈ 0.65 µg/mL) | 2 | 0.39 (≈ 0.65 µg/mL) | 16 | 32 | 2 | 0.39 (≈ 0.65 µg/mL) | MIC-fold improvement vs. vancomycin (MRSA KS6): 2; MIC (MRSA KS6): 0.39 µM (≈ 0.65 µg/mL); MIC-fold improvement vs. vancomycin (MRSA KS89): 2; MIC (MRSA KS89): 0.39 µM (≈ 0.65 µg/mL); MIC-fold improvement vs. vancomycin (MRSA KS1): 2; MIC (MRSA KS1): 0.39 µM (≈ 0.65 µg/mL)
2 | CN[C@H](CC(C)C)C(=O)N[C@H]1C(=O)N[C@@H](CC(N)=O)C(=O)N[C@H]2C(=O)N[C@H]3C(=O)N[C@H](C(=O)N[C@H](C(=O)NCCNC(=O)/C=C/c4ccc(Cl)cc4)c4cc(O)cc(O)c4-c4cc3ccc4O)[C@H](O)c3ccc(c(Cl)c3)Oc3cc2cc(c3O[C@@H]2O[C@H](CO)[C@@H](O)[C@H](O)[C@H]2O[C@H]2C[C@](C)(N)[C@H](O)[C@H](C)O2)Oc2ccc(cc2Cl)[C@H]1O [Vanc-20] | 0.39 (≈ 0.646 µg/mL) | 4 | 1.56 (≈ 2.58 µg/mL) | 128 | 12.5 (≈ 20.7 µg/mL) | 32 | 6.25 (≈ 10.3 µg/mL) | 64 | 12.5 (≈ 20.7 µg/mL) | 138 ± 5 | 146 ± 24 | 80 ± 3 | 121 | 0.39 (≈ 0.646 µg/mL) | 2 | 0.39 (≈ 0.646 µg/mL) | 16 | 32 | 4 | 0.20 (≈ 0.331 µg/mL) | MIC (S. aureus VRSA): 3.13 µM (≈ 5.18 µg/mL); MIC-fold improvement vs. vancomycin (MRSA KS6): 2; MIC (MRSA KS6): 0.39 µM (≈ 0.646 µg/mL); MIC-fold improvement vs. vancomycin (MRSA KS89): 2; MIC (MRSA KS89): 0.39 µM (≈ 0.646 µg/mL); MIC-fold improvement vs. vancomycin (MRSA KS1): 2; MIC (MRSA KS1): 0.39 µM (≈ 0.646 µg/mL)
3 | CN[C@H](CC(C)C)C(=O)N[C@H]1C(=O)N[C@@H](CC(N)=O)C(=O)N[C@H]2C(=O)N[C@H]3C(=O)N[C@H](C(=O)N[C@H](C(=O)NCC(=O)Nc4cccc(F)c4)c4cc(O)cc(O)c4-c4cc3ccc4O)[C@H](O)c3ccc(c(Cl)c3)Oc3cc2cc(c3O[C@@H]2O[C@H](CO)[C@@H](O)[C@H](O)[C@H]2O[C@H]2C[C@](C)(N)[C@H](O)[C@H](C)O2)Oc2ccc(cc2Cl)[C@H]1O [Vanc-10] | 0.78 (≈ 1.25 µg/mL) | 2 | 6.25 (≈ 10 µg/mL) | 32 | 12.5 (≈ 20 µg/mL) | 32 | 12.5 (≈ 20 µg/mL) | 32 | 12.5 (≈ 20 µg/mL) | > 250 | > 250 | 214 ± 51 | 238 | 0.78 (≈ 1.25 µg/mL) | 1 | 0.78 (≈ 1.25 µg/mL) | 8 | 8 | 2 | 0.39 (≈ 0.624 µg/mL) | MIC-fold improvement vs. vancomycin (E. faecalis VRE 37; VRE 37, ratio of MIC of vancomycin and MIC of analogue): 64; MIC (S. aureus VRSA): 12.5 µM (≈ 20 µg/mL); MIC-fold improvement vs. vancomycin (MRSA KS6): 1; MIC (MRSA KS6): 0.78 µM (≈ 1.25 µg/mL); MIC-fold improvement vs. vancomycin (MRSA KS89): 2; MIC (MRSA KS89): 0.39 µM (≈ 0.624 µg/mL); MIC-fold improvement vs. vancomycin (MRSA KS1): 2; MIC (MRSA KS1): 0.39 µM (≈ 0.624 µg/mL)
